Measured values taken from BindingDB's records for doi:10.1124/jpet.102.045674 (Pudue Pharma Discovery Research, 2003).

Experiments:
[1] = target: Amine oxidase [flavin-containing] B (Rattus norvegicus, UniProt P19643)
Substance-P receptor = Substance-P receptor (Rattus norvegicus, UniProt P14600)
[2] = target: Nitric oxide synthase, brain (Rattus norvegicus, UniProt P29476)
[3] = target: Sodium-dependent dopamine transporter (Rattus norvegicus, UniProt P23977)
[4] = target: Gamma-aminobutyric acid (GABA) B receptor 1 (Rattus norvegicus, UniProt Q6MFX8)
[5] = target: Alpha-1A adrenergic receptor (Rattus norvegicus, UniProt P43140)
[6] = target: ATP-sensitive inward rectifier potassium channel 1 (Rattus norvegicus, UniProt P35560)
[7] = target: Gamma-aminobutyric acid receptor subunit alpha-1 (Rattus norvegicus, UniProt P62813)
[8] = target: Alpha-2C adrenergic receptor (Rattus norvegicus, UniProt P22086)
[9] = target: Type-1 angiotensin II receptor A (Rattus norvegicus, UniProt P25095)
[10] = target: Type-2 angiotensin II receptor (Rattus norvegicus, UniProt P35351)
B2 bradykinin receptor = B2 bradykinin receptor (Rattus norvegicus, UniProt P25023)
[11] = target: Choline O-acetyltransferase (Rattus norvegicus, UniProt P32738)
[12] = target: Muscarinic acetylcholine receptor M2 (Rattus norvegicus, UniProt P10980)
[13] = target: Muscarinic acetylcholine receptor M1 (Rattus norvegicus, UniProt P08482)
D(1A) dopamine receptor = D(1A) dopamine receptor (Rattus norvegicus, UniProt P18901)
Endothelin-1 receptor = Endothelin-1 receptor (Rattus norvegicus, UniProt P26684)
Estrogen receptor = Estrogen receptor (Rattus norvegicus, UniProt P06211)
[14] = target: Glutamate receptor ionotropic, kainate 1 (Rattus norvegicus, UniProt P22756)
[15] = target: Glutamate decarboxylase 2 (Rattus norvegicus, UniProt Q05683)
[16] = target: Glycine receptor subunit alpha-1 (Rattus norvegicus, UniProt P07727)
Histamine H2 receptor = Histamine H2 receptor (Rattus norvegicus, UniProt P25102)
Hrh3 protein = Hrh3 protein (Rattus norvegicus, UniProt Q5PPG3)
[17] = target: Leukotriene B4 receptor 1 (Rattus norvegicus, UniProt Q9R0Q2)
[18] = target: Cysteinyl leukotriene receptor 1 (Rattus norvegicus, UniProt Q924T8)
[19] = target: Melatonin receptor type 1A (Rattus norvegicus, UniProt P49218)
[20] = target: Nicotinic acetylcholine receptor (Rattus leucopus, UniProt Q62594)
Substance-K receptor = Substance-K receptor (Rattus norvegicus, UniProt P16610)
[21] = target: Norepinephrine transporter (Rattus norvegicus, UniProt Q9JIA2)
Oxytocin receptor = Oxytocin receptor (Rattus norvegicus, UniProt P70536)
[22] = target: Platelet-activating factor receptor (Rattus norvegicus, UniProt P46002)
[23] = target: Small conductance calcium-activated potassium channel protein 1 (Rattus norvegicus, UniProt P70606)
Thromboxane A2 receptor = Thromboxane A2 receptor (Rattus norvegicus, UniProt P34978)
[24] = target: Sodium channel protein type 1 subunit alpha (Rattus norvegicus, UniProt P04774)
[25] = target: Sodium channel protein type 2 subunit alpha (Rattus norvegicus, UniProt P04775)
[26] = target: Beta-2 adrenergic receptor (Rattus norvegicus, UniProt P10608)
[27] = target: Corticotropin releasing factor receptor (Rattus norvegicus) (UniProt P35353)
[28] = target: Androgen receptor (Rattus norvegicus) (UniProt P15207)
[29] = target: Thyrotropin-releasing hormone receptor (Rattus norvegicus) (UniProt Q01717)
[30] = target: Vasopressin V1a receptor (Rattus norvegicus) (UniProt P30560)

Sequence of Muscarinic acetylcholine receptor M2 (P10980 whole entry): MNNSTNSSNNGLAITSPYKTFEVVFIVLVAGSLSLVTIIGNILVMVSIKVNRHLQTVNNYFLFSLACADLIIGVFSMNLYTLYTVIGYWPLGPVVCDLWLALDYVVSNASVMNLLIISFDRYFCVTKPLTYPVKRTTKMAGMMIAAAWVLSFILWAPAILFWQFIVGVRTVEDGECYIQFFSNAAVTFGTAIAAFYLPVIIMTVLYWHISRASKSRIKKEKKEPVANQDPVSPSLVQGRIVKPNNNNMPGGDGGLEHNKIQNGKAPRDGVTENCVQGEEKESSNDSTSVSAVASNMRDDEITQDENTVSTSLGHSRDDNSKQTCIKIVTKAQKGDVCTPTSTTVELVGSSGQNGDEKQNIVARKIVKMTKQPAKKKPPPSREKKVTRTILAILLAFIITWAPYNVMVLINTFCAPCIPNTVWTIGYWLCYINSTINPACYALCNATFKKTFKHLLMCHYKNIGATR
Sequence of Platelet-activating factor receptor (P46002 whole entry): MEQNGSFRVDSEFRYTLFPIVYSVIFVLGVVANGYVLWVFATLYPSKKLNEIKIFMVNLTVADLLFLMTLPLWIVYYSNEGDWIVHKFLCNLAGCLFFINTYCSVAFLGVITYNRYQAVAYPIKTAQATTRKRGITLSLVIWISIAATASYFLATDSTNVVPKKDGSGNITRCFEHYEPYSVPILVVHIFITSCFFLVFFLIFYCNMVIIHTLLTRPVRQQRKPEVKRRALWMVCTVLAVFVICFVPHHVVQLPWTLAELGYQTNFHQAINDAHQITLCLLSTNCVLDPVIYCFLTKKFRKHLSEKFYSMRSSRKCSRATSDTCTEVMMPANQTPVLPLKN
Sequence of Leukotriene B4 receptor 1 (Q9R0Q2 whole entry): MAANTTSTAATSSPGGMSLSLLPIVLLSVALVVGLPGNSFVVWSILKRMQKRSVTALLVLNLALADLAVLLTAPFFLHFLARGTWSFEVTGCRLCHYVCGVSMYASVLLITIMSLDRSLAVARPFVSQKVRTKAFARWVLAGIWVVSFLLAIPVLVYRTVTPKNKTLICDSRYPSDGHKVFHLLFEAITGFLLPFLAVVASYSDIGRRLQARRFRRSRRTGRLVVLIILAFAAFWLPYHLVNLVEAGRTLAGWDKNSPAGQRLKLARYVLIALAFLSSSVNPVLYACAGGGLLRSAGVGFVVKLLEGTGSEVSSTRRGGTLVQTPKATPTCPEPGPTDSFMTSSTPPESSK
Sequence of Histamine H2 receptor (P25102 whole entry): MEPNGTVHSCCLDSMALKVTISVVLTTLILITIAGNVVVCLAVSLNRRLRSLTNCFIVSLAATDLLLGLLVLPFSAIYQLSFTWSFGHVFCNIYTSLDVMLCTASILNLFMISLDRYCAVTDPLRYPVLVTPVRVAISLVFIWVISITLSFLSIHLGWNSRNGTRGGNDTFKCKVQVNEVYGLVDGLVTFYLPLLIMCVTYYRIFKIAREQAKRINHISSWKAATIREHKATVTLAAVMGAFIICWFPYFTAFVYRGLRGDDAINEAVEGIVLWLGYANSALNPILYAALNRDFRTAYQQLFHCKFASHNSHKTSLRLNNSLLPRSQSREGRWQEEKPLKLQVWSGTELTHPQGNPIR
Sequence of ATP-sensitive inward rectifier potassium channel 1 (P35560 whole entry): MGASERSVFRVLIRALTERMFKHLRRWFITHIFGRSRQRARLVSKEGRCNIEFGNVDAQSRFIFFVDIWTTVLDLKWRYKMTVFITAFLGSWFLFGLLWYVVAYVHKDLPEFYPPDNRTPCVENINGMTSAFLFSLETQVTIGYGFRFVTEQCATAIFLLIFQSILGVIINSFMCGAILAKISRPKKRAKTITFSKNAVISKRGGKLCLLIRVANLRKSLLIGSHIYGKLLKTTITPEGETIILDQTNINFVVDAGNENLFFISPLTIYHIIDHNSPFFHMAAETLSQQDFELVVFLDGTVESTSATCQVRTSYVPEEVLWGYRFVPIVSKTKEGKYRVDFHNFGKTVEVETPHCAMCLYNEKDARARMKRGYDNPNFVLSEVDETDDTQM
Sequence of Glycine receptor subunit alpha-1 (P07727 whole entry): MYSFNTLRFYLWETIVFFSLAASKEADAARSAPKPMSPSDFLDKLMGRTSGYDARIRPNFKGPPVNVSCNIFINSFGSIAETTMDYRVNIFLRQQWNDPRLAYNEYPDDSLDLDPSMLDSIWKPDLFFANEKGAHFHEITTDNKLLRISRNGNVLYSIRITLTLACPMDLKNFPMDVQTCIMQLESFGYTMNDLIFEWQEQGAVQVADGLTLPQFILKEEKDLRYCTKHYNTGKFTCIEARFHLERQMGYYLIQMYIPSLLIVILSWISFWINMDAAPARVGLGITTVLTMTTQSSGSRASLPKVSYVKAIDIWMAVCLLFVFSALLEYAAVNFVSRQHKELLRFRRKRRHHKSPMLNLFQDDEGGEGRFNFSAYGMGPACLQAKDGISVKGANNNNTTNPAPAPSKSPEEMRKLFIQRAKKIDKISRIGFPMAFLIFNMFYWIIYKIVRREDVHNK
Sequence of Glutamate receptor ionotropic, kainate 1 (P22756 whole entry): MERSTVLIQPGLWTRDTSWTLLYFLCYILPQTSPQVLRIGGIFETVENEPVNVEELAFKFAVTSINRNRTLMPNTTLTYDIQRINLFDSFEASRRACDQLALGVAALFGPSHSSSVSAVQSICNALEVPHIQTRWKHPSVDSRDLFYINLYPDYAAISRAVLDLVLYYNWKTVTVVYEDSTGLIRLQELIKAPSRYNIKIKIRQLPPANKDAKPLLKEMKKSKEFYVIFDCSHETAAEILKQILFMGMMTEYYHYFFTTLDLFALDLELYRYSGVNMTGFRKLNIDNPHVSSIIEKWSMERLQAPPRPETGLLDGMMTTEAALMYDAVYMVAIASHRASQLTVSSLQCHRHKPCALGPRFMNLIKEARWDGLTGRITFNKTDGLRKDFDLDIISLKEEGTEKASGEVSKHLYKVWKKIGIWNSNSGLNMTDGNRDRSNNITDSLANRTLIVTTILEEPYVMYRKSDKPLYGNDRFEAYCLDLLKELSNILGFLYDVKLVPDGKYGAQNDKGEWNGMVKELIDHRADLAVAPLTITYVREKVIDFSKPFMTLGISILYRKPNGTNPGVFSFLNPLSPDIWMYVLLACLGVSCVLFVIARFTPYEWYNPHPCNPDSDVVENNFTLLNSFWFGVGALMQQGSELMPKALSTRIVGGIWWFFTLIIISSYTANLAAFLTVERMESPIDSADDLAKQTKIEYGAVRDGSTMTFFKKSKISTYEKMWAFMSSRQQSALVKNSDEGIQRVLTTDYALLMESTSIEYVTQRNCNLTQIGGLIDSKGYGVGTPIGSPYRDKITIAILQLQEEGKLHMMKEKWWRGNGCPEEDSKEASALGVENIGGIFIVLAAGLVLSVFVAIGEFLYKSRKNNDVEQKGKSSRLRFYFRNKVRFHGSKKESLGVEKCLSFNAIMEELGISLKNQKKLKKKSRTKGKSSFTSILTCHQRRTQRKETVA
Sequence of Muscarinic acetylcholine receptor M1 (P08482 whole entry): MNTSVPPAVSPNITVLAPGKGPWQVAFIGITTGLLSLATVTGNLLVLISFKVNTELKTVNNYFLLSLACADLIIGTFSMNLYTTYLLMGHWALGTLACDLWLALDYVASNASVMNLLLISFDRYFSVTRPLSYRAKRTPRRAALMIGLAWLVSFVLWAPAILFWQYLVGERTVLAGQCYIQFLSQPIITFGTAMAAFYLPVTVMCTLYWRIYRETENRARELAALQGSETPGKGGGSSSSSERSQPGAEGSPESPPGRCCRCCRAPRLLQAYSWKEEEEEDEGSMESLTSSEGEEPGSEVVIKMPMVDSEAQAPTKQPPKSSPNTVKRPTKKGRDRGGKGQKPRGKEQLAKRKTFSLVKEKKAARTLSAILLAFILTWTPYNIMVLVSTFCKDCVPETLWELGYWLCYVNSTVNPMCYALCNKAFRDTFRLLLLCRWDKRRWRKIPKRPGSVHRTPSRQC
Sequence of Substance-P receptor (P14600 whole entry): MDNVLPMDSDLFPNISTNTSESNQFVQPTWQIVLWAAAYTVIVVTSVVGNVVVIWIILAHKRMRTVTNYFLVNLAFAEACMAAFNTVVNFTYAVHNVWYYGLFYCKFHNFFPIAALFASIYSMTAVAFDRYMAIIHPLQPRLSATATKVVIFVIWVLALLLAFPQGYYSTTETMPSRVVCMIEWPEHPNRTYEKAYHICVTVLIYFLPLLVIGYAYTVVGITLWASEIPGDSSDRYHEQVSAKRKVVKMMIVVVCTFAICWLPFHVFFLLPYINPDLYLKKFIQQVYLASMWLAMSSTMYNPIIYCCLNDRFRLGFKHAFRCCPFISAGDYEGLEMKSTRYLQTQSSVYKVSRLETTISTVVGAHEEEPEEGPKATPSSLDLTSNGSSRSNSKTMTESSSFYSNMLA
Sequence of Substance-K receptor (P16610 whole entry): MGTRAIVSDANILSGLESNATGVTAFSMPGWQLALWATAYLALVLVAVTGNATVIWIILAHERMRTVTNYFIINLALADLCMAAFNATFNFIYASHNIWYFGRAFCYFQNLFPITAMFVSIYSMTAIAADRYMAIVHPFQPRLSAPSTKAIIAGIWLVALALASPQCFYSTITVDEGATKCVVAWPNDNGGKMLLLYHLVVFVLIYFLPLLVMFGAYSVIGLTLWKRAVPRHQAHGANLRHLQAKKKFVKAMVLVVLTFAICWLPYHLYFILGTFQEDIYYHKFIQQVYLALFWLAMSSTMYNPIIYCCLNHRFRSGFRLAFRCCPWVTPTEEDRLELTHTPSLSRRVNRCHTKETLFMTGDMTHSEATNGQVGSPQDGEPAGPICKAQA
Sequence of Cysteinyl leukotriene receptor 1 (Q924T8 whole entry): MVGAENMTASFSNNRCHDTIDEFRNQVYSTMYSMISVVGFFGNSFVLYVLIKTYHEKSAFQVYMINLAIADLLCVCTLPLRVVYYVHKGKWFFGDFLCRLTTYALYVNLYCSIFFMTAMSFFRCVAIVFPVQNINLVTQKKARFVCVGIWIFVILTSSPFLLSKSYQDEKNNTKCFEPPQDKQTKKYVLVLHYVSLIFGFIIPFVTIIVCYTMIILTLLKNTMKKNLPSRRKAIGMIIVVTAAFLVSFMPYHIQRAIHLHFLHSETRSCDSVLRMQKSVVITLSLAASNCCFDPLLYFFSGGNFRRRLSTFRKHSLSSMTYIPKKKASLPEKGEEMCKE
Sequence of Nicotinic acetylcholine receptor (Q62594 whole entry): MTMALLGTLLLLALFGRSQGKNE

Ki [1]: > 10 µM
Ki (Substance-P receptor): > 10 µM
Ki [2]: > 10 µM
Ki [3]: > 10 µM
Ki [4]: > 10 µM
Ki [5]: > 10 µM
Ki [6]: > 10 µM
Ki [7]: > 10 µM
Ki [8]: > 10 µM
Ki [9]: > 10 µM
Ki [10]: > 10 µM
Ki (B2 bradykinin receptor): > 10 µM
Ki [11]: > 10 µM
Ki [12]: > 10 µM
Ki [13]: > 10 µM
Ki (D(1A) dopamine receptor): > 10 µM
Ki (Endothelin-1 receptor): > 10 µM
Ki (Estrogen receptor): > 10 µM
Ki [14]: > 10 µM
Ki [15]: > 10 µM
Ki [16]: > 10 µM
Ki (Histamine H2 receptor): > 10 µM
Ki (Hrh3 protein): > 10 µM
Ki [17]: > 10 µM
Ki [18]: > 10 µM
Ki [19]: > 10 µM
Ki [20]: > 10 µM
Ki (Substance-K receptor): > 10 µM
Ki [21]: > 10 µM
Ki (Oxytocin receptor): > 10 µM
Ki [22]: > 10 µM
Ki [23]: > 10 µM
Ki (Thromboxane A2 receptor): > 10 µM
Ki [24]: > 10 µM
Ki [25]: > 10 µM
Ki [26]: > 10 µM
Ki [27]: > 10 µM
Ki [28]: > 10 µM
Ki [29]: > 10 µM
Ki [30]: > 10 µM
Structure (SMILES): CC(C)(C)c1ccc(NC(=O)N2CCN(c3ncccc3Cl)CC2)cc1 [BCTC]
